Test system: maize WUS2 promoter
Assay: Maize WUS2 promoter tDT report construct co-bombardment
Assay type: cell-based
Text: Homeobox domain transcriptional factor WUSCHEL (WUS) plays an important role in establishing and maintaining of shoot meristem. To identify boost factors that promote endogenous WUS2 expression, the maize WUSCHEL 2 promoter report construct (pAMK-ZmWUS2-tDT-noT) (SEQ ID NO: 43; FIG. 13) was used to illustrate maize WUS2 promoter activity. The maize WUS2 promoter (pZmWUS2) drove expression of the tDT report gene in this report construct (FIG. 13). The WUS2 promoter report construct was co-bombarded with boost factors individually in maize immature embryos and leaf segments.
Fresh leaf segments of 1-2 cm in length were prepared from the in vitro-cultured maize A188 seedling of 10-14 days old, and placed on the Osmotic medium with abaxial side up for 4 hours. For co-bombardment, two plasmids (100 ng of ZmWUS2 promoter report (FIG. 13) and 100 ng of boost construct, e.g. TaRKD4 (FIG. 5)) were premixed and coated onto 100 μg of gold particles size 0.4 μm. Immature embryo preparation, bombardment, and post-bombardment culturing were carried out as described in Example 1 and Example 2. Red fluorescence showing tDT expression was monitored using a fluorescent microscope started at 16 hours after bombardment.

[1] = A188 leaf segments, after bombardment

wheat RKD4: wheat RKD4 boost gene, expression construct pABM-BdEF1-TaRKD4 (SEQ ID NO: 28)
time at which tDT signal peaked [1]: around 44 hours | time at which tDT signal was detected [1]: around 36 hours | activation of maize WUS2 genes (immature embryos and leaf segments): strongly activate | tDT red fluorescent signals (immature embryos, 44 hours after bombardment, compared to WUS promoter reporter only): extremely strong red fluorescent signals

From patent publication US20240417743A1, “METHODS FOR IMPROVING GENOME ENGINEERING AND REGENERATION IN PLANT” (KWS SAAT SE & Co. KGaA, priority 2018, published 2024)
